The record followed here is BindingDB's records for doi:10.7270/Q2JM282R (University of Pittsburgh, 2008).

Each structure is given as a SMILES string.

The target in the assay is RAC-alpha serine/threonine-protein kinase (Homo sapiens, UniProt P31749). Description: off-target activity on human AKT1 kinase – biochemical, 57K library, IC50, selectivity assay for PKD inhibitor project, dose response (AID 1378).
Chain of RAC-alpha serine/threonine-protein kinase (P31749 whole entry): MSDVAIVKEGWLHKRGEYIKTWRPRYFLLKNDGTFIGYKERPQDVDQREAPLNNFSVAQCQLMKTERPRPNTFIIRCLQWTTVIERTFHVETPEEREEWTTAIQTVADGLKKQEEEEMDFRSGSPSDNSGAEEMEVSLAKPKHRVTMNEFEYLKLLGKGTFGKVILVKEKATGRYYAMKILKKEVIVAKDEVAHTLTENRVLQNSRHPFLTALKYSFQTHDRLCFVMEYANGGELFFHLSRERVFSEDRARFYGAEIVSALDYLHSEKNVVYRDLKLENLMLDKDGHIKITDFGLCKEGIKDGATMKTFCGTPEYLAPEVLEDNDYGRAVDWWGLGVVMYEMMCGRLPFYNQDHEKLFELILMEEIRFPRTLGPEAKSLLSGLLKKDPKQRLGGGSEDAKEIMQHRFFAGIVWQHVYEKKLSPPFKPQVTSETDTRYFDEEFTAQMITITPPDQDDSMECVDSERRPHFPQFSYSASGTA

For orientation: IC50 means the concentration at which inhibition is half-maximal. A high value points to weaker potency in that assay. `Cn1cccc1C(=O)NC(=O)COC(=O)c1cc(S(=O)(=O)N2CCCCC2)ccc1Cl` [[2-[(1-methylpyrrol-2-yl)carbonylamino]-2-oxidanylidene-ethyl] 2-chloranyl-5-piperidin-1-ylsulfonyl-benzoate] had a half-inhibitory concentration (IC50) above 100 µM.
The result for `O=C1CSCN1c1cc(Cl)ccc1Cl` [3-(2,5-dichlorophenyl)-1,3-thiazolan-4-one] reads above 100 µM; that for `CC1Cc2ccccc2N1c1ncnc(N)c1[N+](=O)[O-]` (stereo not drawn) [6-(2-methyl-2,3-dihydro-1H-indol-1-yl)-5-nitro-4-pyrimidinamine], above 100 µM; that for `O=C(CSc1ccncc1)Nc1ccc2ccccc2c1` [N-naphthalen-2-yl-2-pyridin-4-ylsulfanylacetamide], above 100 µM.
As for `O=C(NNC1=Nc2cccc3cccc1c23)c1ccc(Br)cc1` [SMR000260645], the figure is above 100 µM; as for `COc1ccc(Cn2c(=O)[nH]c3cc(C(=O)NC4CCCC4)ccc3c2=O)cc1` [MLS000730065], above 100 µM; as for `CC(N=Nc1ncc(Cl)cc1Cl)c1ccccn1` (stereo not drawn) [3,5-dichloro-N-(1-pyridin-2-ylethylideneamino)pyridin-2-amine], above 100 µM.
As for `Cc1cc(NC(=O)CCC(=O)N(Cc2ccco2)C(C(=O)NCC2CCCO2)c2ccncc2)no1` (stereo not drawn) [N'-(furan-2-ylmethyl)-N-(5-methyl-1,2-oxazol-3-yl)-N'-[2-oxidanylidene-2-(oxolan-2-ylmethylamino)-1-pyridin-4-yl-ethyl]butanediamide], the figure is above 100 µM; as for `CSc1ccccc1C(=O)NCc1ccc(F)cc1`, above 100 µM; as for `O=C(CSc1ccc2nnc(-c3cccnc3)n2n1)c1ccccc1` [1-phenyl-2-[[3-(3-pyridinyl)-[1,2,4]triazolo[4,3-b]pyridazin-6-yl]thio]ethanone], above 100 µM.
`COC(=O)c1c(NC(=O)C2C3CCC(C3)C2C(=O)O)sc2c1CCCCC2` (stereo not drawn) [SMR000298221]: the half-maximal inhibitory concentration (IC50) is above 100 µM.
As for `CCCc1cc(=O)[nH]c(SCCCCN2C(=O)c3ccccc3C2=O)n1` [2-[4-[(4-oxidanylidene-6-propyl-1H-pyrimidin-2-yl)sulfanyl]butyl]isoindole-1,3-dione], the figure is above 100 µM.
As for `CCOC(=O)c1sc(=NC(=O)CCS(=O)(=O)c2ccccc2)n(C)c1C` [2-[3-(benzenesulfonyl)-1-oxopropyl]imino-3,4-dimethyl-5-thiazolecarboxylic acid ethyl ester], the figure is above 100 µM.
The result for `Cc1c(C#N)c(N)nc(Cl)c1C#N` [2-amino-6-chloro-4-methyl-3,5-pyridinedicarbonitrile] reads above 100 µM; that for `O=C(O)c1cc(C(=O)C2CCCCC2)c[nH]1` [4-(cyclohexylcarbonyl)-1H-pyrrole-2-carboxylic acid], above 100 µM.
Compound `COc1ccc(CNC(=O)C2Cc3ccccc3CN2C(=O)c2ccco2)cc1` (stereo not drawn) [SMR000343177] had an IC50 above 100 µM.
As for `O=C(Nc1ccccc1C(=O)N1CCCC1)C1COc2ccccc2O1` (stereo not drawn) [SMR000287780], the figure is above 100 µM; as for `O=[N+]([O-])c1ccc(Nc2c3ccccc3nc3ccccc23)cc1` [MLS000723809], above 100 µM.
